From US20250304927A1, “PRO-PEPTIDE VARIANTS FOR MODULATING ACTIVITY OF TRANSGLUTAMINASES” (CURIE CO. INC., priority 2022, published 2025)
Where no end group is shown, it is not given here.

T1: thermostable variant of Streptomyces mobaraensis transglutaminase (Streptomyces mobaraensis, UniProt P81453 79-407)
T1 sequence: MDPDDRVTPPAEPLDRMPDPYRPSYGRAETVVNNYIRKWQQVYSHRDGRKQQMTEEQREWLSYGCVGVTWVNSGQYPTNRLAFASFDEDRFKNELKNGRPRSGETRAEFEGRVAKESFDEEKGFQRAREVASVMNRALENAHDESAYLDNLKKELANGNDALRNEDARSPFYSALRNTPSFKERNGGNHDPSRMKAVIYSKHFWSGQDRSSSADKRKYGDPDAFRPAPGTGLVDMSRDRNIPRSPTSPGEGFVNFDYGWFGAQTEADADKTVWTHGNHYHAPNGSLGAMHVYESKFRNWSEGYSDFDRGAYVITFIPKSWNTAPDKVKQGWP


Experiments:
[1] = molecular target: T2, thermostable mature transglutaminase variant (SEQ ID NO: 3) (Streptomyces mobaraensis, UniProt P81453); type: biochemical; details: increase in transglutaminase activity relative to wild-type pro-peptide, casein assay; Method A
T2 construct: made in house; host or cells: E. coli (lysate)
Text: Method A. A bicistronic expression vector encoding the wild-type pro-domain of transglutaminase (SEQ ID NO: 2) and a thermostable mature transglutaminase variant (SEQ ID NO: 3) as separate polypeptides was cloned as described in PCT/US20/49226 (WO2021/178001 A1). The vector was used as a template for synthesis of a random mutagenesis library targeting the pro-domain coding sequence to create pro-domain peptide variants.
Method A. Plasmid libraries containing mature transglutaminase and variant pro-domain peptides were plated on Luria-Bertani (LB) agar plates containing 50 μg/mL of kanamycin. After incubation for at least 16 hours at 37° C., colonies were picked and inoculated into 1 mL of LB broth with 50 μg/mL kanamycin in one well of a 96 deep well culture plate. The plate was covered with a breathable seal and incubated overnight at 37° C. with 400 rpm of shaking. 10 μL of the seed culture was used to inoculate 1 mL of media in a 96 deep well culture plate for expression. The expression plate was allowed to grow for 6-8 hours at 30° C. Expression was then induced by adding isopropyl beta-D-1-thiogalactopyranoside (IPTG) to a final concentration of 1 mM and the temperature was reduced to 20° C. while growth continued for an additional 15 hours. Cells were harvested by centrifugation at 4000 rcf for 30 minutes and pellets were frozen at −80° C.
A secondary screen was performed to determine initial rate of transglutaminase in the presence of the pro-peptide variants using transglutaminase-catalyzed labeling of casein with dansylcadaverine (e.g., a commercially available kit such as the Transglutaminase Fluorogenic Activity Assay Kit, T036, Zedira, Germany). Transglutaminase activity was monitored by measuring the fluorescence (excitation wavelength 332 nm; emission wavelength 500 nm) using a BioTek Synergy H1 microplate reader. Transglutaminase-catalyzed covalent coupling (crosslinking) of monodansylcadaverine with N,N-dimethylcasein produces a product that causes a shift in intensity and wavelength of fluorescence of the dansyl group now linked to the casein. The relative transglutaminase activity is shown by increase of fluorescence intensity over time. The data were normalized for transglutaminase expression levels in E. coli lysate as described above. Pro-domain variants were identified based on their ability to alter the activity of the mature transglutaminase enzyme. […]
It is believed that these pro-peptide variants have reduced binding affinity with mature mTgase.

[2] = molecular target: T1, thermostable variant of Streptomyces …; assay: cell-based or functional assay
[3] = molecular target: T1, thermostable variant of Streptomyces …; assay: cell-based or functional assay; remark: listed apart in the source

| Molecule | Reduction in binding affinity of inhibitory peptide relative to WT [1] | Improvement in pH responsiveness of inhibitory peptide relative to WT [2] | Reduction in binding affinity of inhibitory peptide relative to WT [3] |
| --- | --- | --- | --- |
| MDNGAGEETKGYAETYRLTADDVANINALNESAPAASSAGPSFRAP [Variant S11G] | >5 fold |  |  |
| MDNGAGEETKSYAETYRLTADDVAN [ΔI26-P46] | >1.2 fold |  |  |
| MDNGAGEETKSLAETYRLTADDVANINALNESAPAASSAGPSFRAP [Variant Y12L] | >1.2 fold |  |  |
| MDNGAGEETKSYAHTYRLTADDVANINALNESAPAASSAGPSFRAP [Variant E14H] | >1.2 fold |  |  |
| MDNGAGEETKSYAETYRSTADDVANINALNESAPAASSAGPSFRAP [Variant L18S] | >1.2 fold |  |  |
| MDNGAGEETKLYAETYRLTADDVANINALNESAPAASSAGPSFRAP [Variant S11L] | >1.2 fold |  |  |
| MDNGAGEETCSYAETYRLTADDVANINALNESAPAASSAGPSFRAP [Variant K10C] | >1.2 fold |  |  |
| MDNGAGEETKSTAETYRLTADDVANINALNESAPAASSAGPSFRAP [Variant Y12T] | >1.2 fold |  |  |
| MDNGAGEETKSYAETYRETADDVANINALNESAPAASSAGPSFRAP [Variant L18E] | >1.2 fold |  |  |
| MDNGAGEETKSYAGTYRLTADDVANINALNESAPAASSAGPSFRAP [Variant E14G] | >1.2 fold |  |  |
| MDNGAGEETRSYAETYRLTADDVANINALNESAPAASSAGPSFRAP [Variant K10R] | >1.2 fold |  |  |
| MDNGAGEETKSYACTYRLTADDVANINALNESAPAASSAGPSFRAP [Variant E14C] | >1.2 fold |  |  |
| MDNGAGEYTKSYAETYRLTADDVANINALNESAPAASSAGPSFRAP [Variant E8Y] | >1.2 fold |  |  |
| MDNGAGEETKKYAETYRLTADDVANINALNESAPAASSAGPSFRAP [Variant S11K] | >1.2 fold |  |  |
| MDNGAGEETKSYAETYRKTADDVANINALNESAPAASSAGPSFRAP [Variant L18K] | >1.2 fold |  |  |
| MDNGAGEETKSYAETYRLTAD [ΔD22-P46] | >1.2 fold |  |  |
| MDNGAGEETDSYAETYRLTADDVANINALNESAPAASSAGPSFRAP [Variant K10D] | >1.2 fold |  |  |
| MDNGAGEETKSYAETYRLTADDVANINALNESAPAASPAGPSFRAP [Variant S38P] | >1.2 fold |  |  |
| MDNGAGEETKSSAETYRLTADDVANINALNESAPAASSAGPSFRAP [Variant Y12S] | >5 fold |  |  |
| MDNGAGEETKSYAETYRLTADYVANINALNESAPAASSAGPSFRAP [Variant D22Y] | >1.2 fold |  |  |
| MDNGAGEETKSGAETYRLTADDVANINALNESAPAASSAGPSFRAP [Variant Y12G] | >1.2 fold |  |  |
| MDNGAGEETKSYAETYRLTADDVANENALNESAPAASSAGPSFRAP [Variant I26E] | >1.2 fold |  |  |
| MDNGAGEETKYYAETYRLTADDVANINALNESAPAASSAGPSFRAP [Variant S11Y] | >1.2 fold |  |  |
| MDNGAGEETKSYAETYRLTADGVANINALNESAPAASSAGPSFRAP [Variant D22G] | >1.2 fold |  |  |
| MDNGAGEETKSYAETYRLTADRVANINALNESAPAASSAGPSFRAP [Variant D22R] | >1.2 fold |  |  |
| MDNGAGEETKSVAETYRLTADDVANINALNESAPAASSAGPSFRAP [Variant Y12V] | >1.2 fold |  |  |

| Molecule | Reduction in binding affinity of inhibitory peptide relative to WT [1] | Improvement in pH responsiveness of inhibitory peptide relative to WT [2] | Reduction in binding affinity of inhibitory peptide relative to WT [3] |
| --- | --- | --- | --- |
| MDNGAGEETKSYAETYRLTADDVANINALNESAPAASDAGPSFRAP [Variant S38D] | >1.2 fold |  |  |
| MDNGAGEEQKSYAETYRLTADDVANINALNESAPAASSAGPSFRAP [Variant T9Q] | >1.2 fold |  |  |
| MDNGAGEETKSYAETYRLTADDVANINALNESAPAASYAGPSFRAP [Variant S38Y] | >1.2 fold |  |  |
| MDNGAGEETKSYAVTYRLTADDVANINALNESAPAASSAGPSFRAP [Variant E14V] | >1.2 fold |  |  |
| MDNGAGEETKHYAETYRLTADDVANINALNESAPAASSAGPSFRAP [Variant S11H] | >1.2 fold |  |  |
| MDNGAGEETGSYAETYRLTADDVANINALNESAPAASSAGPSFRAP [Variant K10G] | >1.2 fold |  |  |
| MDNGAGEETKS [ΔY12-P46] | >1.2 fold |  |  |
| MDNGAGEETKSYAATYRLTADDVANINALNESAPAASSAGPSFRAP [Variant E14A] | >1.2 fold |  |  |
| MDNGAGEETKSYAETYR [ΔL18-P46] | >1.2 fold |  |  |
| MDNGAGEETKSYAETYRLTADQVANINALNESAPAASSAGPSFRAP [Variant D22Q] | >1.2 fold |  |  |
| MDNGAGEETKSNAETYRLTADDVANINALNESAPAASSAGPSFRAP [Variant Y12N] | >1.2 fold |  |  |
| MDNGAGEETKSYAETYRLTADDVANANALNESAPAASSAGPSFRAP [Variant I26A] | >1.2 fold |  |  |
| MDNGAGGETKSYAETYRLTADDVANINALNESAPAASSAGPSFRAP [Variant E7G] | >1.2 fold |  |  |
| MDNGAGEETKSYARTYRLTADDVANINALNESAPAASSAGPSFRAP [Variant E14R] | >1.2 fold |  |  |
| MDNGAGEETKSYAETYRLTADPVANINALNESAPAASSAGPSFRAP [Variant D22P] | >1.2 fold |  |  |
| MDNGAGEETKSYAETYRWTADDVANINALNESAPAASSAGPSFRAP [Variant L18W] | >1.2 fold |  |  |
| MDNGAGEETKSYAETYRLTADDVANYNALNESAPAASSAGPSFRAP [Variant I26Y] | >1.2 fold |  |  |
| MDNGAGEETKSPAETYRLTADDVANINALNESAPAASSAGPSFRAP [Variant Y12P] | >1.2 fold |  |  |
| MDNGAGEETKSYATTYRLTADDVANINALNESAPAASSAGPSFRAP [Variant E14T] | >1.2 fold |  |  |
| MDNGAGEETKSYADTYRLTADDVANINALNESAPAASSAGPSFRAP [Variant E14D] | >1.2 fold |  |  |
| MDNGAGEETKSYAETYRLTALDVANINALNESAPAASSAGPSFRAP [pro-peptide variant D21L] |  | > 1.2 fold | > 5 fold |
| MDNGAGEETKSYAETYRLTADDVANYNALNESAPAASSAGPSFRAP [pro-peptide variant I26Y] |  | > 1.2 fold | > 1.2 fold |
| MDNGAGEETKSYAETYRLTARDVANINALNESAPAASSAGPSFRAP [pro-peptide variant D21R] |  | > 1.2 fold | > 5 fold |
| MDNGAGEETKSYAETYRLTADDVHNINALNESAPAASSAGPSFRAP [pro-peptide variant A24H] |  | > 5 fold | > 1.2 fold |
| MDNGAGEETKSYAETYRLTADGVANINALNESAPAASSAGPSFRAP [pro-peptide variant D22G] |  | > 1.2 fold | > 1.2 fold |
